The text below walks through data of patent publication US20130039905A1 (Neurotec Pharma, S.L., priority 2010, published 2013).

The structures appear in SMILES notation. Entries after “also recorded” stand apart in the source; their conditions may differ.

The nature of data set [1]: Glycemia in mice receiving daily oral diazoxide (Example 1). Type of data set: in vivo. Particulars: 30 days, female C57BL/6J mice, blood glucose at time 0 and 60 minutes. How it is done: Female C57BL/6J mice, 11 weeks of age, were purchased from Charles River and maintained on a 12:12 hr light:dark cycle, with standard chow and water freely available. The experiments began at 11:00 h. […] From day 4 on, glucose blood levels were measured every 3-4 days during the 30-day treatment period. Measurements were performed immediately before drug administration (time 0) and at 60 minutes. Blood samples were obtained from the saphenous vein and glucose levels were determined using a glucometer and glucose test strips (Accu-Chek® Aviva, Roche Diagnostics, Indianapolis, Ind, USA). For each group, hyperglycemia was considered when glucose concentration was equal or higher than 176 mg/dl.

The test system of data set [2] is EAE mice. Nature of the data set: EAE in mice, treatment starting at immunization (pre-treatment, Example 2). Type of data set: in vivo. Particulars: for global mean decrease of the clinical score (Area Under the Curve vs placebo): pre-treatment.
For data set [3], the system named is EAE mice. Nature of the data set: EAE in mice, treatment after first clinical signs (post-treatment, Example 3). The conditions noted are these: for global mean decrease of the clinical score (Area Under the Curve vs placebo): post-treatment. Type of data set: in vivo. As for the experimental part: Experimental Autoimmune Encephalomyelitis induction and clinic scoring of mice were performed as described on Example 2.
The day scoring a value of 1, every mouse was randomly assigned to a diazoxide-treatment or placebo-control group. The period of treatment was 15 days and the drug was dissolved in a vehicle consisting in 98.5% water plus 1.5% of dimetyl sulfoxide (Sigma-Aldrich, St. Louis, Mo., USA) and was administered daily orally by gavage (p.o.), in a dose volume of 200 μl. […] One placebo-control group received a daily oral administration of vehicle.
The non-parametric Mann-Whitney-Wilcoxon test was performed to establish the differences between the treated groups and control group for each day. p<0.05 was considered as significant. To test the global effect of the treatment along all the study, the Area Under the Curve of treated groups and control group was compared using One-Way-Anova test. p<0.05 was considered as significant.

In data set [4] the test system is bupivacaine-induced actute CNS toxicity. The conditions noted are these: 100 mg/kg (300 mg/m^2), mice; cited from earlier work.

In the case of `CC1=NS(=O)(=O)c2cc(Cl)ccc2N1` [Diazoxide], the “hyperglycemia (glucose concentration equal or higher than 176 mg/dl)” value in data set [1] (0.05 mg/kg (0,15 mg/m^2) daily p.o.) and in data set [1] (1 mg/kg (3 mg/m^2) daily p.o.) was “none of the two doses tested in this study produced hyperglycemia” throughout. Further, the “global mean decrease of the clinical score (Area Under the Curve vs placebo)” value in the data set on EAE mice [2] (0,8 mg/Kg (2.4 mg/m^2) daily p.o., p<0,01) came to 26%; in the data set on EAE mice [2] (0,025 mg/Kg (0.075 mg/m^2) daily p.o., p<0.05), 26%; in the data set with EAE mice [3] (0.05 mg/kg (0.15 mg/m^2) daily p.o.) it was 19%; in the data set on EAE mice [3] (1 mg/kg (3 mg/m^2) daily p.o., p<0.05), 40%; in the data set with EAE mice [3] (4 mg/kg (12 mg/m^2) daily p.o.), 15%. For the same compound, the “daily EAE clinical score compared to control group” value in the data set on EAE mice [2] (0.025 mg/kg (0.075 mg/m^2) daily p.o. for 30 days from immunization) is “significant difference at days fourteen, fifteen, eighteen and nineteen”; in the data set with EAE mice [3] (0.05 mg/kg (0.15 mg/m^2) daily p.o. for 15 days from score 1), “significant difference at the final phase of the study (day 15)”; in the data set on EAE mice [3] (4 mg/kg (12 mg/m^2) daily p.o. for 15 days from score 1), “significant reduction in the clinical score at day four and at day five”. Moreover, the “daily EAE clinical score compared to placebo control group” value in the data set with EAE mice [2] (0.8 mg/kg (2.4 mg/m^2) daily p.o. for 30 days from immunization) is “significantly lower at day thirteen and from day twenty-five to thirty; also recorded: significant in seven non-consecutive days”. Further, the “mean value for clinical score compared to control group after day 13 post-immunization” value with EAE mice [2] (all dosages tested (0.025 and 0.8 mg/kg) daily p.o. from immunization) was “better mean value for clinical score”. The “daily EAE clinical score compared to placebo-control group” value is reported as “all clinical values were significantly lower; also recorded: significant reduction of the daily clinical score in ten consecutive days” with EAE mice [3] (0.8 mg/kg (2.4 mg/m^2) daily p.o. for 15 days from score 1, day six to day fifteen) and “significantly lower from day four” in the data set on EAE mice [3] (1 lmg/kg (3 mg/m^2) daily p.o. for 15 days from score 1, day four to day fifteen). Moreover, in the data set on EAE mice [3] (0.05, 0.8 and 1 mg/kg daily p.o. for 15 days from score 1), the “morbidity and mean daily clinical score compared to placebo-control group” value is “significant reduction of morbidity and of the mean daily clinical score”. Also, the “period of latency of the convulsions caused by bupivacaine” value in data set [4] is on record as “increasing the period of latency of the convulsions”.
